Assay results published in patent publication US20260345621A1, “GABAA RECEPTOR MODULATORS AND USES THEREOF” (Engrail Therapeutics, Inc., priority 2022, published 2026).
“Also recorded” adds a separate entry of the source. Like-named read-outs stand apart in the source and are kept apart here.

Columns and labels:
[1] = Multiple ascending dose study, plasma pharmacokinetics; assay type: in vivo, human (healthy volunteers); conditions: for half-life / AUC tau / Cmax at 288 h / Tmax at 288 h: Day 12; for AUC(0-t) at 24 h / Cmax at 24 h / Tmax at 24 h: Day 1
Experimental: A clinical study was developed to evaluate safety, tolerability, pharmacokinetics, and pharmacodynamics of Compound 1 at plasma steady-state in 40 healthy human volunteers. Compound 1 (provided as Compound 1 phosphate) was administered to participants as multiple ascending doses of 0.5 mg (N=6), 1.0 mg (N=6), 1.5 mg (N=6), 2.0 mg (N=6), or 5.0 mg (N=6) once daily (QD) for 12 days.
Blood samples were collected, and plasma concentrations were measured using a validated high performance liquid chromatography/liquid chromatography-mass spectrometry/mass spectrometry method. The PK parameters assessed included Cmax, Tmax, AUC from administration to the end of dosing (AUC0-t), AUC0-24, AUC0-inf, t1/2, terminal rate constant (λz), apparent total clearance of the drug from plasma (CL/F), and apparent volume of distribution during terminal phase after non-intravenous administration (Vz/F).
The plasma concentration data for Compound 1 were summarized by dose level and the planned sampling time points using descriptive statistics (n, SD, median, minimum, maximum, geometric mean, and coefficient of variance (CV %) for the geometric mean) for the PK Analysis Set.
Specifically, samples for PK analyses were taken on Day 1 and Day 12 pre-dose, 0.5, 1, 1.5, 3, 6, 8, 10, and 12 h post-dose, with additional samples taken on every dosing Day (24 hours after the previous day's dose) and 24, 72, 168, and 336 h after last dosing on Day 12. All individual Compound 1 concentrations were above the LLOQ of 0.0500 ng/mL at 0.5 h post-dose, except for 1 participant, for whom the concentration was above the LLOQ at 1 h post-dose.

sleep stages = assay: Sleep-stage analysis in wirelessly implanted rats; conditions: Lorazepam 1 mg/kg IP
[2] = Stability of solutions/suspensions at room temperature; assay type: physicochemical
Excerpt: The dosage forms provided herein may be prepared and placed in a container for storage at ambient or elevated temperature. […] This is beneficial because transportation of commercially viable dosage forms may benefit from stability at temperatures greater than those requiring refrigeration or sub-freezing environments during transportation and storage at the site of use.

[3] = biological target: human GABAA receptor α3/β3/γ2 (Homo sapiens, UniProt P18507+P34903); assay: SyncroPatch platform, PAM mode, GABAA α3/β3/γ2
Chain of human GABAA receptor α3/β3/γ2 (P34903 29-492): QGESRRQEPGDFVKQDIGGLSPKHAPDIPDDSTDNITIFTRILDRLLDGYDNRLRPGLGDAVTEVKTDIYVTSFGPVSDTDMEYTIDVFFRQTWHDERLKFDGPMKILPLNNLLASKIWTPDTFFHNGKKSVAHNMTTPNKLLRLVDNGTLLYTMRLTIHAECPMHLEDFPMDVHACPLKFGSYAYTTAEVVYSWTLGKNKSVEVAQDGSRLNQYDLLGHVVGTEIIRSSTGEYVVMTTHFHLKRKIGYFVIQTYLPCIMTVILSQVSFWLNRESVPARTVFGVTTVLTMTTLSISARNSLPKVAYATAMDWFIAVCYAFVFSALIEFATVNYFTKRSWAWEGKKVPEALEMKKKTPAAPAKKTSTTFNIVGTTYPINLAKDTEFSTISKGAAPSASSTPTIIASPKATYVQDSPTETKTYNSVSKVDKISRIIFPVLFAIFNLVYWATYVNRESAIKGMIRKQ
Chain of human GABAA receptor α3/β3/γ2 (P18507 40-475): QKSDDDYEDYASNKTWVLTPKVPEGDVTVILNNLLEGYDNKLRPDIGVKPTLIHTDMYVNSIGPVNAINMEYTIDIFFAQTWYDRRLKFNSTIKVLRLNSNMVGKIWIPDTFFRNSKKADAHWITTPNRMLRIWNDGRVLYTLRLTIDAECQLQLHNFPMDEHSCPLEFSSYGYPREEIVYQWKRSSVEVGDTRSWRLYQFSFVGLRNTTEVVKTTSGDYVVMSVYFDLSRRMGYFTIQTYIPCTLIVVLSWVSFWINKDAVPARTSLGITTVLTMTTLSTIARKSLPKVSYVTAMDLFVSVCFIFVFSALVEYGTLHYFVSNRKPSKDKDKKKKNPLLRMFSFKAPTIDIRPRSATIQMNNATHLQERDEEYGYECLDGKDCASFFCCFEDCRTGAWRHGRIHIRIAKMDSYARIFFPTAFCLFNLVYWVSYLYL
Chain of human GABAA receptor α3/β3/γ2 (P28472 26-473 partner): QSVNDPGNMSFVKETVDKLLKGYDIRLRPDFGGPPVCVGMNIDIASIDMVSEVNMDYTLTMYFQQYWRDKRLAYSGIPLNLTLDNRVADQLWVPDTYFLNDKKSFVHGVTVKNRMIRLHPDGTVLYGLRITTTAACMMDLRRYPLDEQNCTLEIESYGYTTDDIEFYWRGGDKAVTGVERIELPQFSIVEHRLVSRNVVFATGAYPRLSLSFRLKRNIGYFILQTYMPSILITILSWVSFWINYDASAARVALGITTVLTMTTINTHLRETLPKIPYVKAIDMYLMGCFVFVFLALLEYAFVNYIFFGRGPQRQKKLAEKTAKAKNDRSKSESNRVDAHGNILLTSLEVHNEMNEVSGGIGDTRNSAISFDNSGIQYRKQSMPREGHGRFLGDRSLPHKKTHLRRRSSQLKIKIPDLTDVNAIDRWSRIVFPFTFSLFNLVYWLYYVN

[4] = human, plasma, po, 1.5 mg, 1.5 mg oral QD, read-out: Cmax (mean)
[5] = human, plasma, po, 1.5 mg, 1.5 mg oral QD, read-out: Cmax (median)
[6] = human, plasma, po, 2 mg, 2.0 mg oral QD, read-out: Cmax (mean)
[7] = human, plasma, po, 2 mg, 2.0 mg oral QD, read-out: Cmax (median)
[8] = human, plasma, po, 5 mg, 5.0 mg oral QD, read-out: Cmax (mean)
[9] = human, plasma, po, 5 mg, 5.0 mg oral QD, read-out: Cmax (median)
[10] = human, plasma, 0.5 mg oral QD, read-out: Tmax (median)
[11] = human, plasma, 1.0 mg oral QD, read-out: Tmax (median)
[12] = human, plasma, 1.5 mg oral QD, read-out: Tmax (median)
[13] = human, plasma, 2.0 mg oral QD, read-out: Tmax (median)
[14] = human, plasma, 5.0 mg oral QD, read-out: Tmax (median)

CC(C)(O)c1cnn2c(-c3ccc(F)c(-c4c(F)cccc4C#N)c3)cnc2n1 [Compound 1, 2′,6-difluoro-5′-(3-(2-hydroxypropan-2-yl)imidazo[1,2-b][1,2,4]triazin-7-yl)-[1,1′-biphenyl]-2-carbonitrile]
half-life ([1]; human, plasma, po, 1 mg, 1.0 mg oral QD, read-out: t1/2 (median) (converted)): 58.2 h
AUC(0-t) at 24 h ([1]; human, plasma, po, 1.5 mg, 1.5 mg oral QD, read-out: AUC0-24 (mean)): 217 ± 48 ng·h/mL
AUC(0-t) at 24 h ([1]; human, plasma, po, 1.5 mg, 1.5 mg oral QD, read-out: AUC0-24 (median)): 227 ng·h/mL
Cmax at 24 h [1, 4]: 18.8 ± 7 ng/mL
Cmax at 24 h [1, 5]: 18.2 ng/mL
AUC tau ([1]; human, plasma, po, 1.5 mg, 1.5 mg oral QD, read-out: AUCtau (mean)): 706 ± 84 ng·h/mL
AUC tau ([1]; human, plasma, po, 1.5 mg, 1.5 mg oral QD, read-out: AUCtau (median)): 738 ng·h/mL
Cmax at 288 h [1, 4]: 41.7 ± 5 ng/mL
Cmax at 288 h [1, 5]: 42.6 ng/mL
half-life ([1]; human, plasma, po, 1.5 mg, 1.5 mg oral QD, read-out: t1/2 (mean) (converted)): 51 ± 18 h
half-life ([1]; human, plasma, po, 1.5 mg, 1.5 mg oral QD, read-out: t1/2 (median) (converted)): 49.1 h
AUC(0-t) at 24 h ([1]; human, plasma, po, 2 mg, 2.0 mg oral QD, read-out: AUC0-24 (mean)): 244 ± 48 ng·h/mL
AUC(0-t) at 24 h ([1]; human, plasma, po, 2 mg, 2.0 mg oral QD, read-out: AUC0-24 (median)): 226 ng·h/mL
Cmax at 24 h [1, 6]: 19.6 ± 4 ng/mL
Cmax at 24 h [1, 7]: 19.9 ng/mL
AUC tau ([1]; human, plasma, po, 2 mg, 2.0 mg oral QD, read-out: AUCtau (mean)): 873 ± 331 ng·h/mL
AUC tau ([1]; human, plasma, po, 2 mg, 2.0 mg oral QD, read-out: AUCtau (median)): 891 ng·h/mL
Cmax at 288 h [1, 6]: 49.8 ± 17 ng/mL
Cmax at 288 h [1, 7]: 48.2 ng/mL
half-life ([1]; human, plasma, po, 2 mg, 2.0 mg oral QD, read-out: t1/2 (mean) (converted)): 61 ± 26 h
half-life ([1]; human, plasma, po, 2 mg, 2.0 mg oral QD, read-out: t1/2 (median) (converted)): 52.3 h
AUC(0-t) at 24 h ([1]; human, plasma, po, 5 mg, 5.0 mg oral QD, read-out: AUC0-24 (mean)): 642 ± 125 ng·h/mL
AUC(0-t) at 24 h ([1]; human, plasma, po, 5 mg, 5.0 mg oral QD, read-out: AUC0-24 (median)): 609 ng·h/mL
Cmax at 24 h [1, 8]: 49.7 ± 13 ng/mL
Cmax at 24 h [1, 9]: 49.5 ng/mL
AUC(0-t) at 24 h ([1]; human, plasma, po, 5 mg, 5.0 mg oral QD, read-out: highest individual AUC0-24): 853 ng·h/mL
AUC tau ([1]; human, plasma, po, 5 mg, 5.0 mg oral QD, read-out: AUCtau (mean)): 1800 ng·h/mL
AUC tau ([1]; human, plasma, po, 5 mg, 5.0 mg oral QD, read-out: AUCtau (median)): 1800 ng·h/mL
Cmax at 288 h [1, 8]: 99.1 ng/mL
Cmax at 288 h [1, 9]: 106 ng/mL
AUC tau ([1]; human, plasma, po, 5 mg, 5.0 mg oral QD, read-out: highest individual AUCtau): 2170 ng·h/mL
half-life ([1]; human, plasma, po, 5 mg, 5.0 mg oral QD, read-out: t1/2 (mean) (converted)): 39 ± 9 h
half-life ([1]; human, plasma, po, 5 mg, 5.0 mg oral QD, read-out: t1/2 (median) (converted)): 37.1 h
concentration at 0.5 h ([1]; human, plasma, po, 0.5 h post-dose, all except 1 participant, read-out: individual plasma concentrations versus LLOQ): > 0.05 ng/mL
Tmax ([1]; human, plasma, po, Day 1 and Day 12, all doses except 5.0 mg on Day 1, read-out: Tmax (median)): 3 h
Tmax at 24 h [1, 10]: 3 h
Tmax at 288 h [1, 10]: 3 h
Tmax at 24 h [1, 11]: 3 h
Tmax at 288 h [1, 11]: 3 h
Tmax at 24 h [1, 12]: 3 h
Tmax at 288 h [1, 12]: 3 h
Tmax at 24 h [1, 13]: 3 h
Tmax at 288 h [1, 13]: 3 h
Tmax at 24 h [1, 14]: 4.5 h
Tmax at 288 h [1, 14]: 3 h
Tmax at 24 h ([1]; human, plasma, up to 2.0 mg oral QD, read-out: Tmax (median)): 3 h
absorption ([1]; oral): rapidly absorbed
end of absorption and distribution phase ([1]; plasma, after which elimination phase commenced): approximately 12 h
concentration decline profile ([1]; plasma, oral QD): bi-exponential decline
variability in key PK parameters ([1]; up to 5.0 mg repeatedly for 12 days): acceptable
NREM onset (sleep stages; Compound 1 1 mg/kg PO): did not change NREM onset; also recorded: does not decrease time to Non-REM onset
Active Wake (sleep stages; Compound 1 PO): decreased Active Wake
NREM (sleep stages; Compound 1 PO): increased NREM
Quiet Wake (sleep stages; Compound 1 PO): only Compound 1 decreased Quiet Wake
stability of standard solutions ([2]; 20 μg/mL): 6 days
stability of samples in 0.5% TYLOSE MH 300 ([2]; 0.12 to 7.2 mg/mL): 8 days
EC50 [3]: 2.47 nM
Emax [3]: 113%
